From patent EP1366764A1, “Method of screening for calcium receptor-active molecules” (The Brigham & Women's Hospital, Inc., priority 1993, dated 1994)

What was measured:
[1] = tested on: rat osteoclasts; experiment: Measurement of [Ca2+]i in single rat osteoclasts (indo-1); format: cell-based; conditions: for EC50: Osteoclast; for effect on the response to subsequent extracellular Ca^2+: neomycin 10 mM (25 mM extracellular Ca2+), spermine 20 mM, verapamil 100 µM; for increases in [Ca^2+]i in rat osteoclasts: neomycin 10 mM, spermine 10 or 20 mM; for increase in [Ca^2+]i in osteoclasts: neomycin B 1 mM, spermine 1 or 5 mM
[2] = Hypocalcemic activity in vivo (serum or whole blood ionized Ca2+, PTH) in rats
[3] = Serum ionized Ca2+ in the 5/6 nephrectomized rat (model of secondary hyperparathyroidism); format: in vivo, rats; conditions: 10 mg/kg i.p.
From the text: An accepted and widely used animal model of secondary hyperparathyroidism arising from chronic renal failure is the 5/6 nephrectomized rat. Animals receiving such surgery become initially hypocalcemic and, to maintain serum Ca^2+ levels, there is a compensatory hyperplasia of the parathyroid glands and elevated levels of circulating PTH. Male Sprague-Dawley rats (250 g) received a 5/6 nephrectomy and were allowed to recover for 2 weeks. At this time they were normocalcemic (due to elevated levels of serum PTH).

[4] = Serum ionized Ca2+ in parathyroidectomized rats; format: in vivo
From the text: To determine the primary target tissue upon which NPS 467 acts to cause a hypocalcemic response, the para thyroid glands in rats were surgically removed.

[5] = tested on: human parathyroid cells; experiment: Measurement of [Ca2+]i (fura-2) in human parathyroid cells; format: cell-based
[6] = tested on: rMTC 6-23 cells; experiment: Measurement of cytosolic Ca2+ in C-cells (fura-2); format: cell-based, rat; conditions: for effect on basal [Ca^2+]i: spermine 10 mM, neomycin B 5 mM
[7] = molecular target: T1, Ca^2+ receptor (Homo sapiens, UniProt P41180); experiment: Cl- current in Xenopus oocytes injected with human parathyroid cell mRNA; format: cell-based; conditions: for concentration causing the mobilization of intracellular Ca^2+ in oocytes: oocytes injected with mRNA from human parathyroid cells
T1 construct: Oocytes were injected with poly(A)^+-enriched mRNA from human parathyroid tissue; expressed in transfected cells; host or cells: Xenopus laevis oocytes injected with poly(A)+ mRNA from human hyperplastic parathyroid glands (secondary HPT)
T1 sequence (P41180 20-1078): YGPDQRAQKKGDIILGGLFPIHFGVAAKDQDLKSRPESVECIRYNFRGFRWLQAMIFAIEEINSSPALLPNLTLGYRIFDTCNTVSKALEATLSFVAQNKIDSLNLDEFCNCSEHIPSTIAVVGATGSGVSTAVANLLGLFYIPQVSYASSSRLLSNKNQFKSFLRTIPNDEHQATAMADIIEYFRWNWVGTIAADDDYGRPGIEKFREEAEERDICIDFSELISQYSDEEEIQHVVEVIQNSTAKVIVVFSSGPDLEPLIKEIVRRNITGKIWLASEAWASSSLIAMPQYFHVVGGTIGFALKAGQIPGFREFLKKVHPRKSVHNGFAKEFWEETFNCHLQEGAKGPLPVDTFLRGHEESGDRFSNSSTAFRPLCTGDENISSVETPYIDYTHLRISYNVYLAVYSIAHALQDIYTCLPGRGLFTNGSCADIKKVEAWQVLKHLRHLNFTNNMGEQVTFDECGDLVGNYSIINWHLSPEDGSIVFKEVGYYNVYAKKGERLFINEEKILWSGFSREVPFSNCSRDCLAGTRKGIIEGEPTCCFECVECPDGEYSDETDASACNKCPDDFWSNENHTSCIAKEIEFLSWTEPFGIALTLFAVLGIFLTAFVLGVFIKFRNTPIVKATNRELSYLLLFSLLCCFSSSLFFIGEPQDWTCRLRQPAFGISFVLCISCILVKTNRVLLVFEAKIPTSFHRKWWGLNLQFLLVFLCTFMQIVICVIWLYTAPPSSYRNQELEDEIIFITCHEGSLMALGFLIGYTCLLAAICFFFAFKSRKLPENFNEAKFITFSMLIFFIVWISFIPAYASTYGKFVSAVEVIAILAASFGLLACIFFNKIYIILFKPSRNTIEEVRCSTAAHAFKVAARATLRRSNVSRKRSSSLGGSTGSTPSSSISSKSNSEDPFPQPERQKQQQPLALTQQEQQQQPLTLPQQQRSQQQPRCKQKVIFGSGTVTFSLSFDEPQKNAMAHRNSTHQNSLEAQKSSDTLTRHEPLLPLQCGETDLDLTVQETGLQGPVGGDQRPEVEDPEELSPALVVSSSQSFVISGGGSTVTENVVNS

[8] = Net positive charge of the molecule; format: physicochemical
[9] = molecular target: T2, Ca^2+ receptor (Bos taurus, UniProt P35384); experiment: 45Ca2+ release from Xenopus oocytes injected with bovine parathyroid mRNA; format: cell-based; conditions: 10 mM for 20 min; compared to mock challenge with buffer
T2 construct: oocytes were injected with bovine parathyroid mRNA or water; expressed in transfected cells; host or cells: Xenopus laevis oocytes injected with poly(A)+ mRNA from bovine (calf) parathyroid glands
T2 sequence (P35384 20-1085): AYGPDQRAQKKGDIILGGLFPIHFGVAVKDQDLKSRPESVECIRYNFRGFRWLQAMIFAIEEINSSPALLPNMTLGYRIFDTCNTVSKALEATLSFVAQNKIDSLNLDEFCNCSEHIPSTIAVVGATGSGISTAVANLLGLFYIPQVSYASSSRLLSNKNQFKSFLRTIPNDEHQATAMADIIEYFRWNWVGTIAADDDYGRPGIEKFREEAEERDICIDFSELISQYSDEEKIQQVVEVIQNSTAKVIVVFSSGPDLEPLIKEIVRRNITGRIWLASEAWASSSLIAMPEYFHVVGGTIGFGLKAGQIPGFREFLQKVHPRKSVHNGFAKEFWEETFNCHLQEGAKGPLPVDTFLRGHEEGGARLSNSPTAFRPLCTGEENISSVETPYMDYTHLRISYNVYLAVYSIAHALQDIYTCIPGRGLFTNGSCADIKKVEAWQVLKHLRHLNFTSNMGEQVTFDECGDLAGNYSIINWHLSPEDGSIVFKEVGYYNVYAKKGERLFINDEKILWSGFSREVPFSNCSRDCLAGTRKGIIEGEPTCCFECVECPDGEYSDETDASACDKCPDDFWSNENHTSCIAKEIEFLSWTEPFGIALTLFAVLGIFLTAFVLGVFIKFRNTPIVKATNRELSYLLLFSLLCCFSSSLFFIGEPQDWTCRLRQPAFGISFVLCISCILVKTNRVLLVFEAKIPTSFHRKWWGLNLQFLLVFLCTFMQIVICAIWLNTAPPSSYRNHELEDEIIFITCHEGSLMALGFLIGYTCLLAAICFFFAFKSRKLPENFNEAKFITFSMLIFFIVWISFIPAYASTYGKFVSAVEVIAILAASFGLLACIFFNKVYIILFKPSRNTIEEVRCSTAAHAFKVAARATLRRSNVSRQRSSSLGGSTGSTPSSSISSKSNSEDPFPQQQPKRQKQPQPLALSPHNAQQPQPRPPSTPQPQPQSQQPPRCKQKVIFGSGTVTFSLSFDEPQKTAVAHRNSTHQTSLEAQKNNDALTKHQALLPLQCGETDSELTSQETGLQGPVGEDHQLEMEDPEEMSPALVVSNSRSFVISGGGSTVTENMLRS
From the text: Prior to being stimulated, oocytes were loaded with ^45Ca^2+.

[10] = molecular target: T3, bovine parathyroid Ca^2+-receptor (Bos taurus, UniProt P35384); experiment: Cl- current in Xenopus oocytes expressing the cloned receptor (BoPCaR 1); format: cell-based
T3 construct: expressed in transfected cells; host or cells: Xenopus laevis oocytes injected with cRNA from the BoPCaR 1 cDNA (plasmid pSPORT1, ATCC 75416)
T3 sequence (P35384 20-1085): T2 sequence (P35384 20-1085)
From the text: An expression cloning strategy using Xenopus laevis oocytes was used to identify the cDNA encoding the bovine parathyroid calcium receptor. These techniques are described only briefly here, and a more complete description preceded this one in the sections describing techniques which may be used to clone additional forms of the Ca^2+-receptor from other cell types. Poly(A^+)-enriched RNA was initially prepared from bovine parathyroid glands using extraction with guanidinium thiocyanate, centrifugation through CsCl and oligo(dT) cellulose chromatography. […] No such currents were elicited in control eggs injected with water. […] The mRNA was then subjected to size fractionation, utilizing preparative, continuous flow agarose gel electrophoresis (Hediger, M.A., Anal. Biochem. 159:280-286 (1986)) to obtain fractions of poly(A^+)-RNA further enriched in transcripts coding for the Ca^2+-receptor. […] A plasmid containing the BoPCaR 1 […] (See plasmid, Figure 45; restriction map, Figure 46; and partial nucleotide sequence, Figure 47) has been deposited in the ATCC under deposit number ATCC 75416.
Several pharmacological and biochemical criteria were used to identify this clone as encoding a bona fide bovine parathyroid Ca^2+-receptor. […] These responses increased markedly over a period of one (1) to four (4) days after injection of the eggs with cRNA prepared from the BoPCaR 1 cDNA. […]

[11] = tested on: human parathyroid cells; experiment: Measurement of PTH secretion from human parathyroid cells (radioimmunoassay); format: cell-based; conditions: human (adenoma) parathyroid cells; at concentrations that caused the mobilization of intracellular Ca2+
Experimental: Cells were suspended in PCB containing 0.5 mM CaCl2 and 0.1% BSA.
For human cells, a commercially available radioimmunoassay kit (INS-PTH; Nichols Institute, Los Angeles, CA) which recognizes intact and N-terminal human PTH was used because GW-1 antibody recognizes human PTH poorly.

[12] = polymers of 1000 amino acids; cited from earlier work
[13] = rat osteoclasts, indo-1, "inactive" = no increase in cytosolic Ca2+ at 1 mM or 1-5 mM (footnote)

COc1cccc([C@@H](C)NCCCc2ccccc2)c1 (single isomer, unassigned) [NPS R-467]
EC50 [1, 13]: > 100 µM
decrease in serum ionized Ca^2+ from the control level ([2]; 10 mg/kg i.p., single dose, rats on normal calcium-replete diet, at maximum): 22%
time serum ionized Ca^2+ remained depressed ([2]; 10 mg/kg i.p., normal diet): up to 6 hours
time to maximal fall in serum ionized Ca^2+ ([2]; 10 mg/kg i.p., normal diet): ≤ 1 h
potency in lowering serum Ca^2+ in vivo, R- versus S-isomer ([2]; each compound at 5 mg/kg body weight): more potent than the S-isomer
serum levels of ionized Ca^2+ after oral dosing ([2]; single oral dose in corn oil by gavage, three hours, fasted rats): dose-dependent reduction
time to fall in serum ionized Ca^2+ [3]: ≤ 2 h
serum ionized Ca^2+ levels, % of controls ([3]; 5/6 nephrectomized rats, 2 weeks after surgery): 83 % of controls
change in serum ionized Ca^2+ levels ([4]; 10 mg/kg i.p., single dose, over 6 hours): did not cause any change

COc1cccc([C@@H](C)NCCCc2ccccc2Cl)c1 [NPS R-568]
EC50 ([5]; read-out: EC50 for the mobilization of intracellular Ca^2+ / increase in [Ca^2+]i, human parathyroid cells (adenoma)): 3 µM
EC50 ([6]; Rattus norvegicus, rMTC 6-23 cells, fura-2, "inactive" = no increase in cytosolic Ca2+ at 1 mM or 1-5 mM (footnote), read-out: EC50 (C-CELL)): > 300 µM
EC50 [1, 13]: 200 µM
ED50 ([2]; Rattus norvegicus, read-out: ED50 for decrease in the levels of serum Ca^2+, oral administration to rats): 7 mg/kg
hypocalcemic response in parathyroidectomized rats ([4]; oral administration): fails to elicit a hypocalcemic response

C1CNCCNCCNCCNCCNCCN1 [hexacyclen, 1,4,7,10,13,16-hexaaza-cyclooctadecane]
concentration causing the mobilization of intracellular Ca^2+ in oocytes [7]: 135 µM
Net (+) Charge ([8]; at physiological pH (pH 7.3)): +6

NC[C@@H]1O[C@H](O[C@H]2[C@@H](O)[C@H](O[C@@H]3[C@@H](O)[C@H](N)C[C@H](N)[C@H]3O[C@H]3O[C@H](CN)[C@@H](O)[C@H](O)[C@H]3N)O[C@@H]2CO)[C@H](N)[C@@H](O)[C@@H]1O [neomycin B]
increase in [Ca^2+]i ([5]; 20 µM): evoked a large increase in [Ca^2+]i
EC50 (C-CELL) ([6]; rMTC 6-23 cells, fura-2, "inactive" = no increase in cytosolic Ca2+ at 1 mM or 1-5 mM (footnote)): inactive
effect on basal [Ca^2+]i [6]: without effect
change in current in water-injected oocytes ([7]; 10 mM, five water-injected oocytes (specificity control)): failed to cause any change in the current
increase in ^45Ca^2+ release [9]: 76%
inhibition of PTH secretion [11]: inhibited PTH secretion from human parathyroid cells
Net (+) Charge ([8]; at physiological pH (pH 7.3)): +6

NCCCNCCCCNCCCN [spermine]
increase in [Ca^2+]i ([5]; 300 µM): only a small increase in [Ca^2+]i
effect on basal [Ca^2+]i [6]: without effect
effect on the response to subsequent extracellular Ca^2+ [1]: did depress the response to extracellular Ca^2+
increases in [Ca^2+]i in rat osteoclasts [1]: Neither neomycin (10 mM) nor spermine (10 or 20 mM) caused increases
increase in [Ca^2+]i in osteoclasts [1]: failed to evoke any increase in [Ca^2+]i

N^1,N^1,N^5,N^14,N^14-tetrakis-(3-aminopropyl)spermine [NPS 382]
concentration causing the mobilization of intracellular Ca^2+ in oocytes [7]: 5000 µM
Net (+) Charge ([8]; pH 7.3): +8

polylysine
Kd [12]: 0.0005 µM
